Experimental data as given in PubChem BioAssay (NCI).
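Where inhibition never reached the appropriate level, the endpoint shown equals the highest concentration tested. Otherwise, values were interpolated linearly from a five-concentration, 48-hour dose response in 96-well plates. Here, GI50 denotes the concentration required for 50% inhibition of growth. TGI is the concentration that stops growth completely.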

Assays:
Experiment in all cases: growth of human tumour cells (NCI), 48 h
CAKI-1 renal = test system: CAKI-1 renal
SF-539 CNS = test system: SF-539 CNS
COLO 205 colon = test system: COLO 205 colon
UACC-62 melanoma = test system: UACC-62 melanoma
EKVX NSCLC = test system: EKVX NSCLC
HS 578T breast = test system: HS 578T breast
NCI-H226 lung = test system: NCI-H226 lung
LOX IMVI melanoma = test system: LOX IMVI melanoma
CCRF-CEM leukemia = test system: CCRF-CEM leukemia
SK-MEL-5 melanoma = test system: SK-MEL-5 melanoma
SF-295 CNS = test system: SF-295 CNS
SK-OV-3 ovarian = test system: SK-OV-3 ovarian
SK-MEL-2 melanoma = test system: SK-MEL-2 melanoma
UACC-257 melanoma = test system: UACC-257 melanoma
OVCAR-3 ovarian = test system: OVCAR-3 ovarian
A498 renal = test system: A498 renal
SK-MEL-28 melanoma = test system: SK-MEL-28 melanoma
MCF7 breast = test system: MCF7 breast
PC-3 prostate = test system: PC-3 prostate
HL-60(TB) leukemia = test system: HL-60(TB) leukemia
DU-145 prostate = test system: DU-145 prostate
SN12C renal = test system: SN12C renal
HOP-62 NSCLC = test system: HOP-62 NSCLC
HCC-2998 colon = test system: HCC-2998 colon
NCI/ADR-RES ovarian = test system: NCI/ADR-RES ovarian
SNB-75 CNS = test system: SNB-75 CNS
T-47D breast = test system: T-47D breast
HT29 colon = test system: HT29 colon
MALME-3M melanoma = test system: MALME-3M melanoma
OVCAR-5 ovarian = test system: OVCAR-5 ovarian
K-562 leukemia = test system: K-562 leukemia
M14 melanoma = test system: M14 melanoma
ACHN renal = test system: ACHN renal
HCT-116 colon = test system: HCT-116 colon
NCI-H522 lung = test system: NCI-H522 lung
HOP-92 NSCLC = test system: HOP-92 NSCLC
A549 NSCLC = test system: A549 NSCLC
NCI-H23 lung = test system: NCI-H23 lung
MDA-MB-435 = test system: MDA-MB-435
RPMI-8226 leukemia = test system: RPMI-8226 leukemia
OVCAR-4 ovarian = test system: OVCAR-4 ovarian
SW-620 colon = test system: SW-620 colon
TK-10 renal = test system: TK-10 renal
NCI-H460 lung = test system: NCI-H460 lung
RXF 393 renal = test system: RXF 393 renal
SNB-19 CNS = test system: SNB-19 CNS
U251 CNS = test system: U251 CNS
MDA-MB-231 breast = test system: MDA-MB-231 breast
SF-268 CNS = test system: SF-268 CNS
KM12 colon = test system: KM12 colon
SR leukemia = test system: SR leukemia
IGROV1 ovarian = test system: IGROV1 ovarian
MOLT-4 leukemia = test system: MOLT-4 leukemia
OVCAR-8 ovarian = test system: OVCAR-8 ovarian
BT-549 breast = test system: BT-549 breast
UO-31 renal = test system: UO-31 renal
786-0 renal = test system: 786-0 renal
HCT-15 colon = test system: HCT-15 colon

Compound: CC(=O)Nc1cccc(C#Cc2cncnc2Nc2ccc(OCc3cccc(F)c3)c(Cl)c2)n1
- GI50 (CAKI-1 renal): 2.28 µM
- TGI (CAKI-1 renal): > 25 µM
- GI50 (SF-539 CNS): > 23.3 µM
- TGI (SF-539 CNS): > 25 µM
- GI50 (COLO 205 colon): > 22.2 µM
- TGI (COLO 205 colon): > 25 µM
- GI50 (UACC-62 melanoma): 24.4 µM
- TGI (UACC-62 melanoma): > 25 µM
- GI50 (EKVX NSCLC): 0.475 µM
- TGI (EKVX NSCLC): > 25 µM
- GI50 (HS 578T breast): 24.9 µM
- TGI (HS 578T breast): > 25 µM
- GI50 (NCI-H226 lung): > 17.8 µM
- TGI (NCI-H226 lung): > 25 µM
- GI50 (LOX IMVI melanoma): > 18.5 µM
- TGI (LOX IMVI melanoma): > 25 µM
- GI50 (CCRF-CEM leukemia): > 25 µM
- TGI (CCRF-CEM leukemia): > 25 µM
- GI50 (SK-MEL-5 melanoma): > 18.8 µM
- TGI (SK-MEL-5 melanoma): > 25 µM
- GI50 (SF-295 CNS): 13.7 µM
- TGI (SF-295 CNS): > 25 µM
- GI50 (SK-OV-3 ovarian): 1.06 µM
- TGI (SK-OV-3 ovarian): > 25 µM
- GI50 (SK-MEL-2 melanoma): 10.4 µM
- TGI (SK-MEL-2 melanoma): > 25 µM
- GI50 (UACC-257 melanoma): > 21.5 µM
- TGI (UACC-257 melanoma): > 25 µM
- GI50 (OVCAR-3 ovarian): > 21.6 µM
- TGI (OVCAR-3 ovarian): > 25 µM
- GI50 (A498 renal): 1.22 µM
- TGI (A498 renal): > 25 µM
- GI50 (SK-MEL-28 melanoma): 14.8 µM
- TGI (SK-MEL-28 melanoma): > 25 µM
- GI50 (MCF7 breast): > 25 µM
- TGI (MCF7 breast): > 25 µM
- GI50 (PC-3 prostate): 9.4 µM
- TGI (PC-3 prostate): > 25 µM
- GI50 (HL-60(TB) leukemia): > 25 µM
- TGI (HL-60(TB) leukemia): > 25 µM
- GI50 (DU-145 prostate): 8.62 µM
- TGI (DU-145 prostate): > 25 µM
- GI50 (SN12C renal): > 25 µM
- TGI (SN12C renal): > 25 µM
- GI50 (HOP-62 NSCLC): 10.3 µM
- TGI (HOP-62 NSCLC): > 25 µM
- GI50 (HCC-2998 colon): > 25 µM
- TGI (HCC-2998 colon): > 25 µM
- GI50 (NCI/ADR-RES ovarian): 20.7 µM
- TGI (NCI/ADR-RES ovarian): > 25 µM
- GI50 (SNB-75 CNS): 11.9 µM
- TGI (SNB-75 CNS): > 25 µM
- GI50 (T-47D breast): 2.57 µM
- TGI (T-47D breast): > 25 µM
- GI50 (HT29 colon): 17.6 µM
- TGI (HT29 colon): > 25 µM
- GI50 (MALME-3M melanoma): 9.55 µM
- TGI (MALME-3M melanoma): > 25 µM
- GI50 (OVCAR-5 ovarian): > 23.4 µM
- TGI (OVCAR-5 ovarian): > 25 µM
- GI50 (K-562 leukemia): > 25 µM
- TGI (K-562 leukemia): > 25 µM
- GI50 (M14 melanoma): 16.1 µM
- TGI (M14 melanoma): > 25 µM
- GI50 (ACHN renal): 2.87 µM
- TGI (ACHN renal): > 25 µM
- GI50 (HCT-116 colon): 11.6 µM
- TGI (HCT-116 colon): > 25 µM
- GI50 (NCI-H522 lung): 8.25 µM
- TGI (NCI-H522 lung): > 25 µM
- GI50 (HOP-92 NSCLC): 3.61 µM
- TGI (HOP-92 NSCLC): 18.2 µM
- GI50 (A549 NSCLC): 6.81 µM
- TGI (A549 NSCLC): > 25 µM
- GI50 (NCI-H23 lung): > 25 µM
- TGI (NCI-H23 lung): > 25 µM
- GI50 (MDA-MB-435): > 20.4 µM
- TGI (MDA-MB-435): > 25 µM
- GI50 (RPMI-8226 leukemia): > 25 µM
- TGI (RPMI-8226 leukemia): > 25 µM
- GI50 (OVCAR-4 ovarian): > 22.7 µM
- TGI (OVCAR-4 ovarian): > 25 µM
- GI50 (SW-620 colon): 23.1 µM
- TGI (SW-620 colon): > 25 µM
- GI50 (TK-10 renal): 0.412 µM
- TGI (TK-10 renal): > 17.6 µM
- GI50 (NCI-H460 lung): 11.9 µM
- TGI (NCI-H460 lung): > 25 µM
- GI50 (RXF 393 renal): 20.8 µM
- TGI (RXF 393 renal): > 25 µM
- GI50 (SNB-19 CNS): > 21.7 µM
- TGI (SNB-19 CNS): > 25 µM
- GI50 (U251 CNS): 7.14 µM
- TGI (U251 CNS): > 23.4 µM
- GI50 (MDA-MB-231 breast): 6.04 µM
- TGI (MDA-MB-231 breast): > 25 µM
- GI50 (SF-268 CNS): > 18.8 µM
- TGI (SF-268 CNS): > 25 µM
- GI50 (KM12 colon): > 25 µM
- TGI (KM12 colon): > 25 µM
- GI50 (SR leukemia): > 25 µM
- TGI (SR leukemia): > 25 µM
- GI50 (IGROV1 ovarian): 4.2 µM
- TGI (IGROV1 ovarian): > 25 µM
- GI50 (MOLT-4 leukemia): > 25 µM
- TGI (MOLT-4 leukemia): > 25 µM
- GI50 (OVCAR-8 ovarian): 15.4 µM
- TGI (OVCAR-8 ovarian): > 25 µM
- GI50 (BT-549 breast): > 25 µM
- TGI (BT-549 breast): > 25 µM
- GI50 (UO-31 renal): 22.5 µM
- TGI (UO-31 renal): > 25 µM
- GI50 (786-0 renal): > 22.5 µM
- TGI (786-0 renal): > 25 µM
- GI50 (HCT-15 colon): > 25 µM
- TGI (HCT-15 colon): > 25 µM
